Test results taken from US11407767B2, “Heterocyclyl substituted pyrrolopyridines that are inhibitors of the CDK12 kinase” (The University of Nottingham, priority 2017, dated 2022).
pIC50: −log10 of the molar value.

What was measured:
CDK12/CycK = CDK12/CycK (Homo sapiens, UniProt Q9NYV4); assay: Inhibition of CDK12 (ADP-Glo kinase assay); format: biochemical; details: 60 nM CDK12/CycK, 30 minutes pre-incubation, 1 μM ATP, 0.5 μM RBER-IRStide substrate, 1 h at 25° C., read-out: CDK12/cyclin K IC50
Method in brief: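 Compounds pre-incubated 30 min with 60 nM CDK12/CycK in HEPES pH 7.5 buffer with Mg2+/Mn2+, 1% DMSO final. Reaction started with 1 μM ATP and 0.5 μM RBER-IRStide, run 1 h at 25 °C; ADP-Glo luminescence, no-kinase blank subtracted, IC50 from sigmoidal fit of % inhibition.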

DM1 fibroblasts = assay: Nuclear foci assay; format: cell-based; details: Fibroblast; DM1 fibroblasts treated for 24 hours, 11 point dilution 20 μM-19 nM, in situ hybridisation with cy3 labelled CAG10 probe
Procedure: DM1 fibroblasts were treated with compounds in an 11 point dilution series from 20 μM-19 nM for 24 hours. Following treatment, fluorescent in situ hybridisation was performed with a cy3 labelled CAG10 probe, to visualize nuclear foci and cells were analysed on a Molecular Devices plate reader with customised MetaExpress software (Ketley, A. et al. (2014). Hum Mol Genet, 23: 1551-1562). Compounds that reduced nuclear foci in a concentration dependent manner, compared to DMSO treated cells were identified.

CDK12/CycK, sequence (Q9NYV4 whole entry): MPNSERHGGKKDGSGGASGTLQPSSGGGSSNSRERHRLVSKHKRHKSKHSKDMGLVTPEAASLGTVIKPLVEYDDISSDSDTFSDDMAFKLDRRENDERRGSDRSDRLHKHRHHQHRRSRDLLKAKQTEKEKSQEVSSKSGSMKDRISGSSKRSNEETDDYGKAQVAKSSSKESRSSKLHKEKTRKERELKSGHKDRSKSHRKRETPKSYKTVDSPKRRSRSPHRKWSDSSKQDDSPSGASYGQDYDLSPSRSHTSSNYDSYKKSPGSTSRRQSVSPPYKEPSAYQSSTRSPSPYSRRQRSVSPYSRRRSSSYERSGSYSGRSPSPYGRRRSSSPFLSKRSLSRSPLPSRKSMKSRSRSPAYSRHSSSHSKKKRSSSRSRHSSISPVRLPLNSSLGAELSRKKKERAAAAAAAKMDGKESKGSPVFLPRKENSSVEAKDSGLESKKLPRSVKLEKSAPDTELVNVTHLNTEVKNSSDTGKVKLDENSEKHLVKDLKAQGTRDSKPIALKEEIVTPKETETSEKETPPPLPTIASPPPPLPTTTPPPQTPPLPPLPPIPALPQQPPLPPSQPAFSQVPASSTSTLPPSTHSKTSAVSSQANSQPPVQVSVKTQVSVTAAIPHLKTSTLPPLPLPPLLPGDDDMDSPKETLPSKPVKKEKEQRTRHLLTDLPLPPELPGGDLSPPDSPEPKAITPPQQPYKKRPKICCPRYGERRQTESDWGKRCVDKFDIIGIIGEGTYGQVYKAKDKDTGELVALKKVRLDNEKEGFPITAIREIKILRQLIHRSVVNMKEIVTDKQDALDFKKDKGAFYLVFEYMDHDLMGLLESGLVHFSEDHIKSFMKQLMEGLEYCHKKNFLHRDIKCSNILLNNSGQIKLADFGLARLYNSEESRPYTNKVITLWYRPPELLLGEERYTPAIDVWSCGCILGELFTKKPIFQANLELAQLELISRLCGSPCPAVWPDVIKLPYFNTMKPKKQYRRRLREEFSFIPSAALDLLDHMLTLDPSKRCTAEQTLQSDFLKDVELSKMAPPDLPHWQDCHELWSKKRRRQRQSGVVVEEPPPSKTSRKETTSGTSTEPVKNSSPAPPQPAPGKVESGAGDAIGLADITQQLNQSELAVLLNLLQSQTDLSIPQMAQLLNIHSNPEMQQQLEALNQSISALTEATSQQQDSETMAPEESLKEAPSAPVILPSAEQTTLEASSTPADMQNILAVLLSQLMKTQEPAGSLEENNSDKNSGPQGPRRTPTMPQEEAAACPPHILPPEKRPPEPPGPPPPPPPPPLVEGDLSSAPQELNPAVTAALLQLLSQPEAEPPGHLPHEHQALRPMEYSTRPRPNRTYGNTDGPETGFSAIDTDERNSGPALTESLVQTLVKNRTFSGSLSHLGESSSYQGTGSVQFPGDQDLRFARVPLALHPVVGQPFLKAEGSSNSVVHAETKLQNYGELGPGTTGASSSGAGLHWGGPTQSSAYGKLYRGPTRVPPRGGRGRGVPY
CDK12/CycK, sequence (O75909 whole entry partner): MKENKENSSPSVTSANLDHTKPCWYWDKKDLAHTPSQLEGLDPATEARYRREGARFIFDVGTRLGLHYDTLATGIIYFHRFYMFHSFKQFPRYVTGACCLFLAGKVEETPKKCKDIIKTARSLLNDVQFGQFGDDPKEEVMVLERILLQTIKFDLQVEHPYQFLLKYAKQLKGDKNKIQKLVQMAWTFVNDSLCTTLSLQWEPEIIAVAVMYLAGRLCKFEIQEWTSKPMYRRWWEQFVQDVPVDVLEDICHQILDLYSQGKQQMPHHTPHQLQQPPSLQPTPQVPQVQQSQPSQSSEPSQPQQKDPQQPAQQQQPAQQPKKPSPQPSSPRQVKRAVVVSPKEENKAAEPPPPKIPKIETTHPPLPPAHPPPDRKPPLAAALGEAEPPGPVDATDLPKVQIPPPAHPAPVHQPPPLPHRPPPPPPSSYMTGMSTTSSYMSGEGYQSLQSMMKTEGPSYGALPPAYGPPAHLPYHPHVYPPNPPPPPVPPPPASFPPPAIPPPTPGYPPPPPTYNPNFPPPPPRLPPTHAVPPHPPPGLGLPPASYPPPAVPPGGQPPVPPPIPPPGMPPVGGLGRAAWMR

SMILES | pIC50 (CDK12/CycK) | pIC50 (DM1 fibroblasts)
C=CC(=O)N1CCC1C(=O)NCCc1cc2c(-c3cnn4ncccc34)ccnc2[nH]1 (single isomer, unassigned) [Example 39] | > 7.00 | > 6.00
NC(=O)c1cc2c(-c3cnn4ncccc34)ccnc2[nH]1 [Example 6, 4-(Pyrazolo[1,5-b]pyridazin-3-yl)-1H-pyrrolo[2,3-b]pyridine-2-carboxamide] | 6.00 to 7.00 | 5.00 to 6.00
CNC(=O)c1cc2c(-c3cnn4ncccc34)ccnc2[nH]1 [Example 7, N-Methyl-4-(pyrazolo[1,5-b]pyridazin-3-yl)-1H-pyrrolo[2,3-b]pyridine-2-carboxamide] | 6.00 to 7.00 | 5.00 to 6.00
c1ccc(Cc2cc3c(-c4cnn5ncccc45)ccnc3[nH]2)cc1 [Example 10, 3-(2-Benzyl-1H-pyrrolo[2,3-b]pyridin-4-yl)pyrazolo[1,5-b]pyridazine] | 4.52 to 6.00 | 4.00 to 5.00
OCc1cc2c(-c3cnn4ncccc34)ccnc2[nH]1 [Example 11, (4-(Pyrazolo[1,5-b]pyridazin-3-yl)-1H-pyrrolo[2,3-b]pyridin-2-yl)methanol] | 6.00 to 7.00 | 5.00 to 6.00
c1cc(-c2ccc3cn[nH]c3c2)c2cc[nH]c2n1 [Example 20, 6-(1H-Pyrrolo[2,3-b]pyridin-4-yl)-1H-indazole] | 6.00 to 7.00 | 4.00 to 5.00
c1cc(-c2ccc3[nH]nnc3c2)c2cc[nH]c2n1 [Example 21, 5-(1H-Pyrrolo[2,3-b]pyridin-4-yl)-1H-benzo[d][1,2,3]triazole] | 4.52 to 6.00 | 4.00 to 5.00
COc1ccc2c(-c3ccnc4[nH]ccc34)cnn2n1 [Example 22, 6-Methoxy-3-(1H-pyrrolo[2,3-b]pyridin-4-yl)pyrazolo[1,5-b]pyridazine] | 4.52 to 6.00 | 4.00 to 5.00
Cc1cc2c(-c3cnn4ncccc34)ccnc2[nH]1 [Example 27, 3-(2-Methyl-1H-pyrrolo[2,3-b]pyridin-4-yl)pyrazolo[1,5-b]pyridazine] | 6.00 to 7.00 | > 6.00
c1cnn2ncc(-c3ccnc4[nH]ccc34)c2c1 [Example 28, 3-(1H-Pyrrolo[2,3-b]pyridin-4-yl)pyrazolo[1,5-b]pyridazine] | 6.00 to 7.00 | > 6.00
C=CC(=O)N1CCC[C@H]1C(=O)NCCc1cc2c(-c3cnn4ncccc34)ccnc2[nH]1 [Example 32, (S)-1-Acryloyl-N-(2-(4-(pyrazolo[1,5-b]pyridazin-3-yl)-1H-pyrrolo[2,3-b]pyridin-2-yl)ethyl)pyrrolidine-2-carboxamide] | > 7.00 | > 6.00
C=CC(=O)N1CCC[C@@H]1C(=O)NCCc1cc2c(-c3cnn4ncccc34)ccnc2[nH]1 [Example 33, (R)-1-Acryloyl-N-(2-(4-(pyrazolo[1,5-b]pyridazin-3-yl)-1H-pyrrolo[2,3-b]pyridin-2-yl)ethyl)pyrrolidine-2-carboxamide] | > 7.00 | > 6.00
C=CC(=O)N1CCC[C@@H](C(=O)NCCc2cc3c(-c4cnn5ncccc45)ccnc3[nH]2)C1 [Example 34, (R)-1-Acryloyl-N-(2-(4-(pyrazolo[1,5-b]pyridazin-3-yl)-1H-pyrrolo[2,3-b]pyridin-2-yl)ethyl)piperidine-3-carboxamide] | > 7.00 | 5.00 to 6.00
C=CC(=O)N1CCC[C@H](C(=O)NCCc2cc3c(-c4cnn5ncccc45)ccnc3[nH]2)C1 [Example 35, (S)-1-acryloyl-N-(2-(4-(pyrazolo[1,5-b]pyridazin-3-yl)-1H-pyrrolo[2,3-b]pyridin-2-yl)ethyl)piperidine-3-carboxamide] | > 7.00 | > 6.00
C=CC(=O)Nc1cccc(C(=O)NCCc2cc3c(-c4cnn5ncccc45)ccnc3[nH]2)c1 [Example 36, 3-Acrylamido-N-(2-(4-(pyrazolo[1,5-b]pyridazin-3-yl)-1H-pyrrolo[2,3-b]pyridin-2-yl)ethyl)benzamide] | > 7.00 | > 6.00
C=CC(=O)N1CC(C(=O)NCCc2cc3c(-c4cnn5ncccc45)ccnc3[nH]2)C1 [Example 37, 1-Acryloyl-N-(2-(4-(pyrazolo[1,5-b]pyridazin-3-yl)-1H-pyrrolo[2,3-b]pyridin-2-yl)ethyl)azetidine-3-carboxamide] | > 7.00 | 5.00 to 6.00
CC(C)=CC(=O)N1CCC[C@H]1C(=O)NCCc1cc2c(-c3cnn4ncccc34)ccnc2[nH]1 [Example 42, (S)-1-(3-Methylbut-2-enoyl)-N-(2-(4-(pyrazolo[1,5-b]pyridazin-3-yl)-1H-pyrrolo[2,3-b]pyridin-2-yl)ethyl)pyrrolidine-2-carboxamide] | 6.00 to 7.00 | 5.00 to 6.00
C=C(C)C(=O)N1CCC[C@H]1C(=O)NCCc1cc2c(-c3cnn4ncccc34)ccnc2[nH]1 [Example 43, (S)-1-Methacryloyl-N-(2-(4-(pyrazolo[1,5-b]pyridazin-3-yl)-1H-pyrrolo[2,3-b]pyridin-2-yl)ethyl)pyrrolidine-2-carboxamide] | 4.52 to 6.00 | 4.00 to 5.00
C/C=C/C(=O)N1CCC[C@H]1C(=O)NCCc1cc2c(-c3cnn4ncccc34)ccnc2[nH]1 [Example 44, (S,E)-1-(But-2-enoyl)-N-(2-(4-(pyrazolo[1,5-b]pyridazin-3-yl)-1H-pyrrolo[2,3-b]pyridin-2-yl)ethyl)pyrrolidine-2-carboxamide] | 4.52 to 6.00 | 5.00 to 6.00
CC(C)(CCl)C(=O)N1CCC[C@H]1C(=O)NCCc1cc2c(-c3cnn4ncccc34)ccnc2[nH]1 [Example 45, (S)-1-(3-Chloro-2,2-dimethylpropanoyl)-N-(2-(4-(pyrazolo[1,5-b]pyridazin-3-yl)-1H-pyrrolo[2,3-b]pyridin-2-yl)ethyl)pyrrolidine-2-carboxamide] | 6.00 to 7.00 | 4.00 to 5.00
C=CC(=O)N1CCC[C@@H]1C(=O)NCCc1cc2c(-c3cnn4ncccc34)c(Cl)cnc2[nH]1 [Example 54, (R)-1-Acryloyl-N-(2-(5-chloro-4-(pyrazolo[1,5-b]pyridazin-3-yl)-1H-pyrrolo[2,3-b]pyridin-2-yl)ethyl)pyrrolidine-2-carboxamide] | > 7.00 | > 6.00
C=CC(=O)N1CCC[C@H](C(=O)NCCc2cc3c(-c4cnn5ncccc45)c(Cl)cnc3[nH]2)C1 [Example 55, (S)-1-Acryloyl-N-(2-(5-chloro-4-(pyrazolo[1,5-b]pyridazin-3-yl)-1H-pyrrolo[2,3-b]pyridin-2-yl)ethyl)piperidine-3-carboxamide] | > 7.00 | 5.00 to 6.00
C=CC(=O)Nc1ccc(C(=O)NCc2cc3c(-c4cnn5ncccc45)ccnc3[nH]2)cc1 [Example 57, 4-Acrylamido-N-((4-(pyrazolo[1,5-b]pyridazin-3-yl)-1H-pyrrolo[2,3-b]pyridin-2-yl)methyl)benzamide] | 6.00 to 7.00 | 5.00 to 6.00
C=CC(=O)N1CCOC[C@@H]1C(=O)NCCc1cc2c(-c3cnn4ncccc34)ccnc2[nH]1 [Example 63, (R)-4-Acryloyl-N-(2-(4-(pyrazolo[1,5-b]pyridazin-3-yl)-1H-pyrrolo[2,3-b]pyridin-2-yl)ethyl)morpholine-3-carboxamide] | > 7.00 | > 6.00
CN(C)C/C=C/C(=O)N1CCC(CC(=O)N2CCC(c3cc4c(-c5cnn6ncccc56)ccnc4[nH]3)C2)CC1 (centres unmarked) [Example 69, (E)-4-(Dimethylamino)-1-(4-(2-oxo-2-(3-(4-(pyrazolo[1,5-b]pyridazin-3-yl)-1H-pyrrolo[2,3-b]pyridin-2-yl)pyrrolidin-1-yl)ethyl)piperidin-1-yl)but-2-en-1-one] | 6.00 to 7.00 | 4.00 to 5.00
C[C@@H](Cl)C(=O)N1CCC[C@@H]1C(=O)N1CCC(c2cc3c(-c4cnn5ncccc45)ccnc3[nH]2)C1 (stereo partly drawn) [Example 70, (2R)-2-Chloro-1-((2R)-2-(3-(4-(pyrazolo[1,5-b]pyridazin-3-yl)-1H-pyrrolo[2,3-b]pyridin-2-yl)pyrrolidine-1-carbonyl)pyrrolidin-1-yl)propan-1-one] | 6.00 to 7.00 | 5.00 to 6.00
C=CC(=O)N1CCN(C(=O)/C=C/c2cc3c(-c4cnn5ncccc45)ccnc3[nH]2)CC1 [Example 209, (E)-1-(4-Acryloylpiperazin-1-yl)-3-(4-(pyrazolo[1,5-b]pyridazin-3-yl)-1H-pyrrolo[2,3-b]pyridin-2-yl)prop-2-en-1-one] | > 7.00 | –
C=CC(=O)NC1(C(=O)NCCCc2cc3c(-c4cnn5ncccc45)ccnc3[nH]2)CC1 [Example 214, 1-Acrylamido-N-(3-(4-(pyrazolo[1,5-b]pyridazin-3-yl)-1H-pyrrolo[2,3-b]pyridin-2-yl)propyl)cyclopropane-1-carboxamide] | > 7.00 | –
C=CC(=O)Nc1cccc(C(=O)NCCCc2cc3c(-c4cnn5ncccc45)ccnc3[nH]2)c1 [Example 215, 3-Acrylamido-N-(3-(4-(pyrazolo[1,5-b]pyridazin-3-yl)-1H-pyrrolo[2,3-b]pyridin-2-yl)propyl)benzamide] | > 7.00 | –
C=CC(=O)N1CCC[C@H]1C(=O)NCCCc1cc2c(-c3cnn4ncccc34)ccnc2[nH]1 [Example 216, (S)-1-Acryloyl-N-(3-(4-(pyrazolo[1,5-b]pyridazin-3-yl)-1H-pyrrolo[2,3-b]pyridin-2-yl)propyl)pyrrolidine-2-carboxamide] | > 7.00 | –
